# According to ChEMBL document CHEMBL5154747, “Discovery of new carbonic anhydrase IX inhibitors as anticancer agents by toning the hydrophobic and hydrophilic rims of the active site to encounter the dual-tail approach” (Eur J Med Chem, 2022):
# Legend:
# Format in all cases: functional
# CCRF-CEM = assay: Anticancer activity against human CCRF-CEM cells assessed as cell growth inhibition at 10 uM incubated for 48 hrs by SRB assay relative to control; conditions: read-out: GI
# RPMI-8226 = assay: Anticancer activity against human RPMI-8226 cells assessed as cell growth inhibition at 10 uM incubated for 48 hrs by SRB assay relative to control; conditions: read-out: GI
# A549 [1] = assay: Anticancer activity against human A549 cells assessed as cell growth inhibition at 10 uM incubated for 48 hrs by SRB assay relative to control; conditions: read-out: GI
# EKVX [2] = assay: Anticancer activity against human EKVX cells assessed as cell growth inhibition at 10 uM incubated for 48 hrs by SRB assay relative to control; conditions: read-out: GI
# NCI-H226 = assay: Anticancer activity against human NCI-H226 cells assessed as cell growth inhibition at 10 uM incubated for 48 hrs by SRB assay relative to control; conditions: read-out: GI
# NCI-H322M = assay: Anticancer activity against human NCI-H322M cells assessed as cell growth inhibition at 10 uM incubated for 48 hrs by SRB assay relative to control; conditions: read-out: GI
# COLO 205 = assay: Anticancer activity against human COLO 205 cells assessed as cell growth inhibition at 10 uM incubated for 48 hrs by SRB assay relative to control; conditions: read-out: GI
# HCT-15 = assay: Anticancer activity against human HCT-15 cells assessed as cell growth inhibition at 10 uM incubated for 48 hrs by SRB assay relative to control; conditions: read-out: GI
# SW-620 [3] = assay: Anticancer activity against human SW-620 cells assessed as cell growth inhibition at 10 uM incubated for 48 hrs by SRB assay relative to control; conditions: read-out: GI
# SF-268 = assay: Anticancer activity against human SF-268 cells assessed as cell growth inhibition at 10 uM incubated for 48 hrs by SRB assay relative to control; conditions: read-out: GI
# U-251 = assay: Anticancer activity against human U-251 cells assessed as cell growth inhibition at 10 uM incubated for 48 hrs by SRB assay relative to control; conditions: read-out: GI
# LOX IMVI = assay: Anticancer activity against human LOX IMVI cells assessed as cell growth inhibition at 10 uM incubated for 48 hrs by SRB assay relative to control; conditions: read-out: GI
# UACC-62 = assay: Anticancer activity against human UACC-62 cells assessed as cell growth inhibition at 10 uM incubated for 48 hrs by SRB assay relative to control; conditions: read-out: GI
# OVCAR-8 = assay: Anticancer activity against human OVCAR-8 cells assessed as cell growth inhibition at 10 uM incubated for 48 hrs by SRB assay relative to control; conditions: read-out: GI
# NCI/ADR-RES [4] = assay: Anticancer activity against human NCI/ADR-RES cells assessed as cell growth inhibition at 10 uM incubated for 48 hrs by SRB assay relative to control; conditions: read-out: GI
# 786-0 = assay: Anticancer activity against human 786-0 cells assessed as cell growth inhibition at 10 uM incubated for 48 hrs by SRB assay relative to control; conditions: read-out: GI
# A498 [5] = assay: Anticancer activity against human A498 cells assessed as cell growth inhibition at 10 uM incubated for 48 hrs by SRB assay relative to control; conditions: read-out: GI
# UO-31 = assay: Anticancer activity against human UO-31 cells assessed as cell growth inhibition at 10 uM incubated for 48 hrs by SRB assay relative to control; conditions: read-out: GI
# PC-3 = assay: Anticancer activity against human PC-3 cells assessed as cell growth inhibition at 10 uM incubated for 48 hrs by SRB assay relative to control; conditions: read-out: GI
# DU-145 [6] = assay: Anticancer activity against human DU-145 cells assessed as cell growth inhibition at 10 uM incubated for 48 hrs by SRB assay relative to control; conditions: read-out: GI
# MCF7 = assay: Anticancer activity against human MCF7 cells assessed as cell growth inhibition at 10 uM incubated for 48 hrs by SRB assay relative to control; conditions: read-out: GI
# K562 = assay: Anticancer activity against human K562 cells assessed as cell growth inhibition incubated for 48 hrs by SRB assay; conditions: for CC50: read-out: LC50 (the source's name)
# MOLT-4 = assay: Anticancer activity against human MOLT-4 cells assessed as cell growth inhibition incubated for 48 hrs by SRB assay; conditions: for CC50: read-out: LC50 (the source's name)
# A549 [7] = assay: Anticancer activity against human A549 cells assessed as cell growth inhibition incubated for 48 hrs by SRB assay
# EKVX [8] = assay: Anticancer activity against human EKVX cells assessed as cell growth inhibition incubated for 48 hrs by SRB assay; conditions: for CC50: read-out: LC50 (the source's name)
# HOP-62 = assay: Anticancer activity against human HOP-62 cells assessed as cell growth inhibition incubated for 48 hrs by SRB assay; conditions: for CC50: read-out: LC50 (the source's name)
# NCI-H460 = assay: Anticancer activity against human NCI-H460 cells assessed as cell growth inhibition incubated for 48 hrs by SRB assay; conditions: for CC50: read-out: LC50 (the source's name)
# SW-620 [9] = assay: Anticancer activity against human SW-620 cells assessed as cell growth inhibition incubated for 48 hrs by SRB assay; conditions: for CC50: read-out: LC50 (the source's name)
# Malme-3M = assay: Anticancer activity against human Malme-3M cells assessed as cell growth inhibition incubated for 48 hrs by SRB assay; conditions: for CC50: read-out: LC50 (the source's name)
# MDA-MB-435 = assay: Anticancer activity against human MDA-MB-435 cells assessed as cell growth inhibition incubated for 48 hrs by SRB assay
# SK-MEL-2 = assay: Anticancer activity against human SK-MEL-2 cells assessed as cell growth inhibition incubated for 48 hrs by SRB assay
# SK-MEL-28 = assay: Anticancer activity against human SK-MEL-28 cells assessed as cell growth inhibition incubated for 48 hrs by SRB assay; conditions: for CC50: read-out: LC50 (the source's name)
# UACC-257 = assay: Anticancer activity against human UACC-257 cells assessed as cell growth inhibition incubated for 48 hrs by SRB assay
# IGROV-1 = assay: Anticancer activity against human IGROV-1 cells assessed as cell growth inhibition incubated for 48 hrs by SRB assay; conditions: for CC50: read-out: LC50 (the source's name)
# OVCAR-3 = assay: Anticancer activity against human OVCAR-3 cells assessed as cell growth inhibition incubated for 48 hrs by SRB assay
# NCI/ADR-RES [10] = assay: Anticancer activity against human NCI/ADR-RES cells assessed as cell growth inhibition incubated for 48 hrs by SRB assay; conditions: for CC50: read-out: LC50 (the source's name)
# A498 [11] = assay: Anticancer activity against human A498 cells assessed as cell growth inhibition incubated for 48 hrs by SRB assay; conditions: for CC50: read-out: LC50 (the source's name)
# RXF 393 = assay: Anticancer activity against human RXF 393 cells assessed as cell growth inhibition incubated for 48 hrs by SRB assay; conditions: for CC50: read-out: LC50 (the source's name)
# DU-145 [12] = assay: Anticancer activity against human DU-145 cells assessed as cell growth inhibition incubated for 48 hrs by SRB assay
# MDA-MB-231 = assay: Anticancer activity against human MDA-MB-231 cells assessed as cell growth inhibition incubated for 48 hrs by SRB assay
smiles,measurement,setting,value
Cc1nn(-c2ccccc2)cc1/C=N/Nc1nc(Nc2ccccc2)nc(Nc2ccc(S(N)(=O)=O)cc2)n1,inhibition of growth at 10 µM,CCRF-CEM,91%
same,inhibition of growth at 10 µM,RPMI-8226,123%
same,inhibition of growth at 10 µM,A549 [1],128%
same,inhibition of growth at 10 µM,EKVX [2],81%
same,inhibition of growth at 10 µM,NCI-H226,159%
same,inhibition of growth at 10 µM,NCI-H322M,90%
same,inhibition of growth at 10 µM,COLO 205,122%
same,inhibition of growth at 10 µM,HCT-15,92%
same,inhibition of growth at 10 µM,SW-620 [3],114%
same,inhibition of growth at 10 µM,SF-268,107%
same,inhibition of growth at 10 µM,U-251,122%
same,inhibition of growth at 10 µM,LOX IMVI,125%
same,inhibition of growth at 10 µM,UACC-62,127%
same,inhibition of growth at 10 µM,OVCAR-8,81%
same,inhibition of growth at 10 µM,NCI/ADR-RES [4],23%
same,inhibition of growth at 10 µM,786-0,147%
same,inhibition of growth at 10 µM,A498 [5],130%
same,inhibition of growth at 10 µM,UO-31,104%
same,inhibition of growth at 10 µM,PC-3,98%
same,inhibition of growth at 10 µM,DU-145 [6],90%
same,inhibition of growth at 10 µM,MCF7,169%
same,GI50,K562,2.63 µM
same,CC50,K562,> 100 µM
same,GI50,MOLT-4,2.29 µM
same,CC50,MOLT-4,> 100 µM
same,GI50,A549 [7],1.85 µM
same,GI50,EKVX [8],2 µM
same,CC50,EKVX [8],35.1 µM
same,GI50,HOP-62,2.83 µM
same,CC50,HOP-62,> 100 µM
same,GI50,NCI-H460,2.77 µM
same,CC50,NCI-H460,> 100 µM
same,GI50,SW-620 [9],3.38 µM
same,CC50,SW-620 [9],> 100 µM
same,GI50,Malme-3M,1.6 µM
same,CC50,Malme-3M,6.13 µM
same,GI50,MDA-MB-435,1.77 µM
same,LC50,MDA-MB-435,6.78 µM
same,GI50,SK-MEL-2,1.69 µM
same,GI50,SK-MEL-28,1.8 µM
same,CC50,SK-MEL-28,6.64 µM
same,GI50,UACC-257,2.5 µM
same,LC50,UACC-257,> 100 µM
same,GI50,IGROV-1,2.59 µM
same,CC50,IGROV-1,> 100 µM
same,GI50,OVCAR-3,3.18 µM
same,LC50 (concentration killing 50% of cells),OVCAR-3,> 100 µM
same,GI50,NCI/ADR-RES [10],> 100 µM
same,CC50,NCI/ADR-RES [10],> 100 µM
same,GI50,A498 [11],1.71 µM
same,CC50,A498 [11],6.71 µM
same,GI50,RXF 393,1.77 µM
same,CC50,RXF 393,6.5 µM
same,GI50,DU-145 [12],3.06 µM
same,LC50 (50% lethal concentration),DU-145 [12],> 100 µM
same,GI50,MDA-MB-231,3.11 µM
same,LC50 (concentration killing 50% of cells),MDA-MB-231,> 100 µM
NS(=O)(=O)c1ccc(Nc2nc(N/N=C/c3ccc(C(F)(F)F)cc3)nc(Nc3ccccc3)n2)cc1,inhibition of growth at 10 µM,CCRF-CEM,88%
same,inhibition of growth at 10 µM,RPMI-8226,105%
same,inhibition of growth at 10 µM,A549 [1],72%
same,inhibition of growth at 10 µM,EKVX [2],46%
same,inhibition of growth at 10 µM,NCI-H226,63%
same,inhibition of growth at 10 µM,NCI-H322M,47%
same,inhibition of growth at 10 µM,COLO 205,70%
same,inhibition of growth at 10 µM,HCT-15,68%
same,inhibition of growth at 10 µM,SW-620 [3],45%
same,inhibition of growth at 10 µM,SF-268,49%
same,inhibition of growth at 10 µM,U-251,81%
same,inhibition of growth at 10 µM,LOX IMVI,90%
same,inhibition of growth at 10 µM,UACC-62,85%
same,inhibition of growth at 10 µM,OVCAR-8,67%
same,inhibition of growth at 10 µM,NCI/ADR-RES [4],12%
same,inhibition of growth at 10 µM,786-0,103%
same,inhibition of growth at 10 µM,A498 [5],60%
same,inhibition of growth at 10 µM,UO-31,39%
same,inhibition of growth at 10 µM,PC-3,85%
same,inhibition of growth at 10 µM,DU-145 [6],60%
same,inhibition of growth at 10 µM,MCF7,89%
same,GI50,K562,3.51 µM
same,CC50,K562,> 100 µM
same,GI50,MOLT-4,3.06 µM
same,CC50,MOLT-4,> 100 µM
same,GI50,A549 [7],3.11 µM
same,LC50,A549 [7],87.2 µM
same,GI50,EKVX [8],2.62 µM
same,CC50,EKVX [8],40.3 µM
same,GI50,HOP-62,2.15 µM
same,CC50,HOP-62,69.7 µM
same,GI50,NCI-H460,3.02 µM
same,CC50,NCI-H460,> 100 µM
same,GI50,SW-620 [9],3.3 µM
same,CC50,SW-620 [9],> 100 µM
same,GI50,Malme-3M,1.87 µM
same,CC50,Malme-3M,8.15 µM
same,GI50,MDA-MB-435,2.07 µM
same,LC50,MDA-MB-435,9.53 µM
same,GI50,SK-MEL-2,2.17 µM
same,CC50,SK-MEL-2; read-out: LC50 (the source's name),42.7 µM
same,GI50,SK-MEL-28,2.44 µM
same,CC50,SK-MEL-28,26.3 µM
same,GI50,UACC-257,2.42 µM
same,LC50,UACC-257,37.2 µM
same,GI50,IGROV-1,2.64 µM
same,CC50,IGROV-1,53.8 µM
same,GI50,OVCAR-3,3.32 µM
same,LC50 (concentration killing 50% of cells),OVCAR-3,> 100 µM
same,GI50,NCI/ADR-RES [10],12.3 µM
same,CC50,NCI/ADR-RES [10],> 100 µM
same,GI50,A498 [11],2.61 µM
same,CC50,A498 [11],63.8 µM
same,GI50,RXF 393,1.82 µM
same,CC50,RXF 393,35.5 µM
same,GI50,DU-145 [12],3.31 µM
same,LC50 (50% lethal concentration),DU-145 [12],36.7 µM
same,GI50,MDA-MB-231,2.31 µM
same,LC50 (concentration killing 50% of cells),MDA-MB-231,33.7 µM
